Earlier results as cited in patent publication US12618855B2, “Serum protein biomarker panel for idiopathic pulmonary fibrosis” (Children's Hospital Medical Center, priority 2019, dated 2026).

Target: p110β (Homo sapiens, UniProt P42338)
Details: p110β compared with p110α, p110-γ and p110-δ (equipotent)

Sequence of p110β (P42338 whole entry, species assumed): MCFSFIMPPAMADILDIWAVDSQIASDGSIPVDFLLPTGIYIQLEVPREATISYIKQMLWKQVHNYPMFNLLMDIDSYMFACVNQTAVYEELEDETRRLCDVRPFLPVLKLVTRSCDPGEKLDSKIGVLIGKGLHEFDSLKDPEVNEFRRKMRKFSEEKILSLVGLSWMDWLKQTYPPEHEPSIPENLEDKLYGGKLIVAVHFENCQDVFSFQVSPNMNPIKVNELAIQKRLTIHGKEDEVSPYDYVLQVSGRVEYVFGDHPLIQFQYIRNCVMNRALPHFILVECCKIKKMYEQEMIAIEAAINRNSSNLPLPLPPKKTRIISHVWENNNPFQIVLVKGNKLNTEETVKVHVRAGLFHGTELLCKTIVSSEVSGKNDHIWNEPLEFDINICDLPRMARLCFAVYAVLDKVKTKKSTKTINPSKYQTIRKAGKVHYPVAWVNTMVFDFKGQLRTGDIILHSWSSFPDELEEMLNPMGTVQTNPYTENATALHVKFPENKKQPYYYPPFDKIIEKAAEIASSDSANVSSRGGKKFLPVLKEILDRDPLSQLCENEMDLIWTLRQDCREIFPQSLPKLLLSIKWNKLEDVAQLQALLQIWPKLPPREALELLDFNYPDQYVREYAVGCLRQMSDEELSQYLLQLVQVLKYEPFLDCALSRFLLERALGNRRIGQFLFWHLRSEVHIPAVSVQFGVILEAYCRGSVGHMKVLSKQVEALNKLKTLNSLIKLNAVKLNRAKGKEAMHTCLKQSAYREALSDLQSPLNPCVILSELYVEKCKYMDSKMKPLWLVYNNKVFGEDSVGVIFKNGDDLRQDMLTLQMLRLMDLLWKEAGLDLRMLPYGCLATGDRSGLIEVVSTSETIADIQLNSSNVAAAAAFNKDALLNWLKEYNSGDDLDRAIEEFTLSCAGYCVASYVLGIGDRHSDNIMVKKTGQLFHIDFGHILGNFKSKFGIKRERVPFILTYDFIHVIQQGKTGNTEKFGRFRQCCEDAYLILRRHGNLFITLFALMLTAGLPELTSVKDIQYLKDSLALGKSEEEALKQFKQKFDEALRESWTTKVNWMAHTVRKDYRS
Sequence of p110β (P27986 whole entry partner, species assumed): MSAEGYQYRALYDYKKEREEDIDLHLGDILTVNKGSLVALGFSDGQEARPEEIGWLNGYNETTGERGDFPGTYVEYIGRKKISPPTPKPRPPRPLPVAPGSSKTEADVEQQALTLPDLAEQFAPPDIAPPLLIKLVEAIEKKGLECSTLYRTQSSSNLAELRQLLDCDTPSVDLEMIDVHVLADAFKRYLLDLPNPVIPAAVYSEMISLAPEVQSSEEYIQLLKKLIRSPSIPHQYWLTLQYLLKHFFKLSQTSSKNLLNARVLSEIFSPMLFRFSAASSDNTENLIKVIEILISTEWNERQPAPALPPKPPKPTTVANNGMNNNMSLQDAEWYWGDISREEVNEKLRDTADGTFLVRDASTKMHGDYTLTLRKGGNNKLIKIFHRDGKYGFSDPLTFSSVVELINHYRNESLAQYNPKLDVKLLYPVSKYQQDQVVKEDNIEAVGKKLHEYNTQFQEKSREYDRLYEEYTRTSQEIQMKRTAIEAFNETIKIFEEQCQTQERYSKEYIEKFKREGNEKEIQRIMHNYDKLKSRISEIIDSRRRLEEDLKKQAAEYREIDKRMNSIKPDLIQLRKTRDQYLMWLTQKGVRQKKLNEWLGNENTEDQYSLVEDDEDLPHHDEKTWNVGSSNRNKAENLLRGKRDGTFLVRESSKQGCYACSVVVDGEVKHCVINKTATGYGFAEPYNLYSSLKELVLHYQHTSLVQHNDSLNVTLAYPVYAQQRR

## Cc1nc(-c2cn3c(n2)-c2ccc(-c4cnn(C(C)(C)C(N)=O)c4)cc2OCC3)n(C(C)C)n1 [Taselisib]
  lower potency of p110β inhibition: 30 fold
